Like-named read-outs stand apart in the source and are kept apart here. Where a SMILES comes first, the peptide text is derived from it. Bridges are numbered along the chain shown (N, C = ends). [ ]: non-standard residue; d: D form. The star is where a group is joined. Phe(4-N3) = [N-]=[N+]=Nc1ccc(C[C@H](N)C(=O)O)cc1; Phe(4-tBu) = CC(C)(C)c1ccc(C[C@H](N)C(=O)O)cc1; Bip = N[C@@H](Cc1ccc(-c2ccccc2)cc1)C(=O)O; 2Nal = N[C@@H](Cc1ccc2ccccc2c1)C(=O)O; NMe2Val = CC(C)[C@@H](C(=O)*)N(C)C; NMeLys(Me) = CNCCCC[C@H](NC)C(=O)O; NMeI = CC[C@H](C)[C@H](NC)C(=O)O; NMeT = CN[C@H](C(=O)O)[C@@H](C)O; NMeL = CN[C@@H](CC(C)C)C(=O)O; NMeOrn = CN[C@@H](CCCN)C(=O)O; dNMeK = CN[C@H](CCCCN)C(=O)O; dHiv = CC(C)[C@@H](O)C(=O)O; NMeS = CN[C@@H](CO)C(=O)O; NMeA = CN[C@@H](C)C(=O)O; dNMeA = CN[C@H](C)C(=O)O; tBu = CC(C)(C)*
Tested on: A549 cells
Assay: Growth inhibition assay (MTS) in A549 cells
Assay type: cell-based
Conditions: for fold more potent cytotoxicity than 1 (coibamide A): ratio of IC50 values to 1
Method: Growth Inhibition AssayS3
A549 cells were cultured in Dulbecco’s modified Eagle’s medium (DMEM; Sigma) supplemented with 10% (v/v) fetal bovine serum at 37 °C in a 5% CO2-incubator. Growth inhibition assays using A549 cells were performed in 96-well plates (BD Falcon). A549 cells were seeded at 1000 cells/well in 90 μL of culture media, respectively, and were cultured for 24 h. Chemical compounds in DMSO were diluted 50-fold with the culture medium in advance. 30 μL of the chemical diluents were added.
The final volume of DMSO in the medium was equal to 0.5% (v/v). The cells under chemical treatment were incubated for a further 72 h. The wells in the plates were washed twice with the cultured medium without phenol-red. After 1-hour incubation with 100 μL of the medium, the cell culture in each well was supplemented with 20 μL of the MTS reagent (Promega), followed by incubation for additional 40 min. Absorbance at 490 nm of each well was measured using a Wallac 1420 ARVO SX multilabel counter (Perkin Elmer). Three experiments were performed per condition and the averages of inhibition rates in each condition were evaluated to determine IC50 values using the GraphPad Prism software.

[1] = read-out: IC50 (concentration for 50% growth inhibition of A549 cells), MTS assay, 72 h treatment, 0.5% DMSO, absorbance 490 nm, n = 3

Structure (SMILES)	IC50 [1]	fold more potent cytotoxicity than 1 (coibamide A)	IC50 (read-out: IC50 (concentration for 50% growth inhibition of A549 cells), MTS assay, 72 h treatment, n = 3)
CC[C@H](C)[C@H]1C(=O)N[C@@H](C)C(=O)N(C)[C@@H](CC(C)C)C(=O)N[C@@H](Cc2ccc(C(C)(C)C)cc2)C(=O)N(C)CCCC[C@H](N(C)C(=O)[C@H](CC(C)C)N(C)C(=O)[C@H](C)N(C)C(=O)[C@H](OC(=O)[C@H](C(C)C)N(C)C)C(C)C)C(=O)N(C)[C@@H](C)C(=O)N1C [10g] (NMe2Val-[dHiv][NMeA][NMeL][NMeLys(Me)][NMeA][NMeI]A[NMeL][Phe(4-tBu)]; lactam 4-C)	610 ± 210 nM	–	–
CC[C@H](C)[C@H]1C(=O)N[C@@H](C)C(=O)N(C)[C@@H](CC(C)C)C(=O)N[C@@H](Cc2ccc(N=[N+]=[N-])cc2)C(=O)N(C)CCCC[C@H](N(C)C(=O)[C@H](CC(C)C)N(C)C(=O)[C@H](C)N(C)C(=O)[C@H](OC(=O)[C@H](C(C)C)N(C)C)C(C)C)C(=O)N(C)[C@@H](C)C(=O)N1C [10e] (NMe2Val-[dHiv][NMeA][NMeL][NMeLys(Me)][NMeA][NMeI]A[NMeL][Phe(4-N3)]; lactam 4-C)	380 ± 50 nM	–	–
CC[C@H](C)[C@H]1C(=O)N[C@@H](C)C(=O)N(C)[C@@H](CC(C)C)C(=O)N[C@@H](Cc2ccc(OC)cc2)C(=O)NCCCC[C@@H](N(C)C(=O)[C@H](CC(C)C)N(C)C(=O)[C@H](C)N(C)C(=O)[C@H](OC(=O)[C@H](C(C)C)N(C)C)C(C)C)C(=O)N(C)[C@@H](C)C(=O)N1C [2f] (NMe2Val-[dHiv][NMeA][NMeL][dNMeK][NMeA][NMeI]A[NMeL]Y(Me); lactam 4-C)	> 10000 nM	–	–
CC[C@H](C)[C@H]1C(=O)N[C@@H](C)C(=O)N(C)[C@@H](CC(C)C)C(=O)N[C@@H](Cc2ccc(OC(C)(C)C)cc2)C(=O)N(C)CCCC[C@H](N(C)C(=O)[C@H](CC(C)C)N(C)C(=O)[C@H](C)N(C)C(=O)[C@H](OC(=O)[C@H](C(C)C)N(C)C)C(C)C)C(=O)N(C)[C@@H](C)C(=O)N1C [10h] (NMe2Val-[dHiv][NMeA][NMeL][NMeLys(Me)][NMeA][NMeI]A[NMeL]Y(tBu); lactam 4-C)	1000 ± 100 nM	–	–
CC[C@H](C)[C@H]1C(=O)N[C@@H](C)C(=O)N(C)[C@@H](CC(C)C)C(=O)N[C@@H](Cc2ccc3ccccc3c2)C(=O)N(C)CCCC[C@H](N(C)C(=O)[C@H](CC(C)C)N(C)C(=O)[C@H](C)N(C)C(=O)[C@H](OC(=O)[C@H](C(C)C)N(C)C)C(C)C)C(=O)N(C)[C@@H](C)C(=O)N1C [10q] (NMe2Val-[dHiv][NMeA][NMeL][NMeLys(Me)][NMeA][NMeI]A[NMeL][2Nal]; lactam 4-C)	280 ± 30 nM	–	–
CC[C@H](C)[C@H]1C(=O)N[C@@H](C)C(=O)N(C)[C@@H](CC(C)C)C(=O)N[C@@H](Cc2ccc(OC)cc2)C(=O)NCCC[C@H](N(C)C(=O)[C@H](CC(C)C)N(C)C(=O)[C@H](C)N(C)C(=O)[C@H](OC(=O)[C@H](C(C)C)N(C)C)C(C)C)C(=O)N(C)[C@@H](C)C(=O)N1C [2g] (NMe2Val-[dHiv][NMeA][NMeL][NMeOrn][NMeA][NMeI]A[NMeL]Y(Me); lactam 4-C)	> 10000 nM	–	–
CC[C@H](C)[C@H]1C(=O)N[C@@H](C)C(=O)N(C)[C@@H](CC(C)C)C(=O)N[C@@H](Cc2ccc(OC)cc2)C(=O)N(C)CCC[C@H](N(C)C(=O)[C@H](CC(C)C)N(C)C(=O)[C@H](C)N(C)C(=O)[C@H](OC(=O)[C@H](C(C)C)N(C)C)C(C)C)C(=O)N(C)[C@@H](C)C(=O)N1C [2c]	9600 ± 3200 nM	–	–
CC[C@H](C)[C@H]1C(=O)N[C@@H](C)C(=O)N(C)[C@@H](CC(C)C)C(=O)N[C@@H](Cc2ccc(OC)cc2)C(=O)N(C)CCCC[C@H](N(C)C(=O)[C@H](CC(C)C)N(C)C(=O)[C@H](C)NC(=O)[C@H](OC(=O)[C@H](C(C)C)N(C)C)C(C)C)C(=O)N(C)[C@@H](C)C(=O)N1C [8a] (NMe2Val-[dHiv]A[NMeL][NMeLys(Me)][NMeA][NMeI]A[NMeL]Y(Me); lactam 4-C)	2200 ± 600 nM	–	–
CC[C@H](C)[C@H]1C(=O)N[C@@H](C)C(=O)N(C)[C@@H](CC(C)C)C(=O)N[C@@H](Cc2ccc(-c3ccccc3)cc2)C(=O)N(C)[C@H](C)C(=O)O[C@H](C)[C@H](N(C)C(=O)[C@H](CC(C)C)N(C)C(=O)[C@H](C)N(C)C(=O)[C@H](OC(=O)[C@H](C(C)C)N(C)C)C(C)C)C(=O)N(C)[C@@H](C)C(=O)N1C [compound 12, [MeAla^3, MeAla^6, Bph^10]-CbA] (NMe2Val-[dHiv][NMeA][NMeL][NMeT][NMeA][NMeI]A[NMeL][Bip][dNMeA]; ester 4-C)	–	5.6 fold	0.25 nM
CC[C@H](C)[C@H]1C(=O)N[C@@H](C)C(=O)N(C)[C@@H](CC(C)C)C(=O)N[C@@H](Cc2ccc(-c3ccccc3)cc2)C(=O)N(C)[C@H](C)C(=O)O[C@H](C)[C@H](N(C)C(=O)[C@H](CC(C)C)N(C)C(=O)[C@H](COC)N(C)C(=O)[C@H](OC(=O)[C@H](C(C)C)N(C)C)C(C)C)C(=O)N(C)[C@@H](COC)C(=O)N1C [compound 11, [Bph^10]-CbA] (NMe2Val-[dHiv][NMeS](Me)[NMeL][NMeT][NMeS](Me)[NMeI]A[NMeL][Bip][dNMeA]; ester 4-C)	–	12 fold	–

Source: publication PMC8762706, “Design of Coibamide A Mimetics with Improved Cellular Bioactivity” (ACS Medicinal Chemistry Letters, 2021)
